Source: patent US11524021B2, “Use of ginsenoside M1 for manufacturing medicament for treating oral cancer” (priority 2018, dated 2022)

Assays:
Type in all cases: cell-based
[1] = tested on: normal human gingival epithelioid cell line SG; test: Toxicity to normal human gingival epithelioid SG cells, Trypan blue exclusion; conditions: 20 μg/ml, 24 h
Description: (§1) Human normal human gingival epithelioid cell line SG cells were incubated for 24 h with ginsenoside M1 (5˜20 μg/ml), ginsenoside Rh2 (5˜20 μg/ml) or vehicle (0.1% DMSO). The live cell numbers were counted by Trypan blue exclusion method. The data were expressed as mean±SD; n=3. ** and *** indicate a significant difference at the level of p<0.01 and p<0.001, respectively, compared to vehicle-control cells. (One-way ANOVA with Dunnett's multiple comparisons test).
as §1, with “Plate 5×10^5” for “Human”, “SG per 6-cm dish in 2 ml of culture medium and were grown overnight at 37° C. in a 5% CO2 incubator. The” for “SG”, “vehicle. Each group contains a final DMSO concentration of 0.1%. Thereafter, the” for “vehicle (0.1% DMSO). The live”, “method. […]” for “method.”

[2] = tested on: human oral cancer cells SAS; test: Viability of human oral cancer SAS cells, Trypan blue exclusion; conditions: 5˜20 μg/ml, 24 h
Description: (§2) Human oral cancer cell line SAS cells (FIG. 1A) or OECM-1 cells (FIG. 1B) were incubated for 24 h with ginsenoside M1 (5˜20 μg/ml), ginsenoside Rh2 (5˜20 μg/ml) or vehicle (0.1% DMSO). The live cell numbers were counted by Trypan blue exclusion method. The data were expressed as mean±SD; n=3. *, ** and *** indicate a significant difference at the level of p<0.05, p<0.01 and p<0.001, respectively, compared to vehicle-control cells. (One-way ANOVA with Dunnett's multiple comparisons test).
(§3) Plate 5×10^5 human oral cancer cells SAS per 6-cm dish in 2 ml of culture medium and were grown overnight at 37° C. in a 5% CO2 incubator. The cells were incubated for 24 h with ginsenoside M1 (5˜20 μg/ml), ginsenoside Rh2 (5˜20 μg/ml) or vehicle. Each group contains a final DMSO concentration of 0.1%. Thereafter, the cell numbers were counted by Trypan blue exclusion method. […] The data were expressed as mean±SD; n=3. *, ** and *** indicate a significant difference at the level of p<0.05, p<0.01 and p<0.001, respectively, compared to vehicle-control cells. (One-way ANOVA with Dunnett's multiple comparisons test).

[3] = tested on: human oral cancer OECM-1 cells; test: Viability of human oral cancer OECM-1 cells, Trypan blue exclusion; conditions: 5˜20 μg/ml, 24 h
Description: as §2, §3

[4] = tested on: human oral cancer cells OECM-1; test: PI/Annexin V double staining assay by flow cytometry; conditions: 50 μM, 24 h
Description: (§4) Human oral cancer cell line OECM-1 cells were incubated for 24 h with ginsenoside M1 (10˜20 μg/ml), 50 μM cistaplatin (CDDP) or vehicle (0.1% DMSO). (FIG. 3A) The apoptotic DNA breaks was assayed by terminal deoxynucleotidyl transferase dUTP nick end labeling (TUNEL) assay using flow cytometry. (FIG. 3B) The cell cycle distribution was determined by PI staining using flow cytometry. (FIG. 3C) The apoptosis level was measured by PI/Annexin V double staining assay using flow cytometry. (FIG. 3D) The activation levels of caspase-9 and caspase-3 were measured by detecting the degradation of pro-caspase-9 and pro-caspase-3 using Western blotting. […] (One-way ANOVA with Dunnett's multiple comparisons test).
(§5) To gain further insight into the mode of action of ginsenoside M1, three assays targeting hallmarks of apoptosis, namely (1) the apoptotic DNA breaks assayed by terminal deoxynucleotidyl transferase dUTP nick end labeling (TUNEL) assay, (2) the cell cycle assayed by flow cytometry after propidium iodide (PI)-staining nuclei, (3) the PI/Annexin V double staining assay, and (4) caspase activation were performed. Plate 1×10^6 human oral cancer cells OECM-1 per 6-cm dish in 2 ml of culture medium and were grown overnight at 37° C. in a 5% CO2 incubator. The cells were incubated for 24 h with ginsenoside M1 (10˜20 μg/ml), 50 μM cistaplatin (CDDP) or vehicle. Each group contains a final DMSO concentration of 0.1%. Thereafter, three assays were performed. […] The cells in sub-G1 phase increased after treatment with ginsenoside M1 and CDDP. (FIG. 3B). […] The data were expressed as mean±SD; n=3. ** and *** indicate a significant difference at the level of p<0.01 and p<0.001, respectively, compared to vehicle-control cells. (One-way ANOVA with Dunnett's multiple comparisons test).

[5] = tested on: human oral cancer cells OECM-1; test: Apoptotic DNA breaks, TUNEL assay by flow cytometry; conditions: 50 μM, 24 h
Description: as §4, §5

[6] = tested on: human oral cancer cells OECM-1; test: Cell cycle distribution, PI staining by flow cytometry; conditions: 50 μM, 24 h
Description: as §4, §5

Row | Compound | toxicity to SG cells [1] | cell numbers of human oral cancer SAS cells [2] | cell numbers of human oral cancer OECM-1 cells [3] | percentage of OECM-1 cells with PI/Annexin V double positive staining [4] | apoptotic DNA breaks in OECM-1 cells [5] | cells in sub-G1 phase [6] | cells in G1 phase ([6]; vs control cells) | percentage of cells in S and G2/M phase ([6]; vs control cells)
1 | CC(C)=CCC[C@](C)(O)[C@H]1CC[C@]2(C)[C@@H]1[C@H](O)C[C@@H]1[C@@]3(C)CC[C@H](O[C@@H]4O[C@H](CO)[C@@H](O)[C@H](O)[C@H]4O)C(C)(C)[C@@H]3CC[C@]12C [ginsenoside Rh2, reference compound] | completely killed the SG cells | dose-dependently inhibited | dose-dependently inhibited | – | – | – | – | –
2 | N.N.[Cl][Pt][Cl] [CDDP, cistaplatin, reference compound] | – | – | – | significantly increased | significantly induced | increased | increased | decreasing
